Among the data in patent US20230145835A1, “Modulators of Alpha-4-beta-7 Integrin and MAdCAM” (48HD Biopharma Inc., priority 2021, published 2023) are IC50, Comments and half-life values, retold here.

Structures are written as SMILES. Numbered stars: 1 amine (or outer) side, 2 acyl side, 3 side chain; on linkers, the order of the positions; unused ones are H or OH. Bridge positions count the residues as written; N and C are the ends. Square brackets hold non-standard residues; d marks the D form. Peptide text beside a SMILES is read from it. ξ: configuration not given here. X3 = O=C(/C=N/OCCCCCCOc1cc(C[*:2])cc(C[*:3])c1)[*:1]; X1 = O=C(C=NOCCCCCCOc1cc(C[*:2])cc(C[*:3])c1)[*:1]; X4 = N=C(N)NCCC[C@@H](CN[*:1])C(=O)[*:2]; hIle(4ξ) = CCC(C)C[C@H](N)C(=O)O; aThr = C[C@H](O)[C@H](N)C(=O)O; Nle = CCCC[C@H](N)C(=O)O Where only a bound is given, the exact number is not on record here.

One data set addresses T1, rh-integrin α4β7/LPAM-1 (Homo sapiens, UniProt P13612+P26010).
T1 sequence (P13612 34-977 limits assumed): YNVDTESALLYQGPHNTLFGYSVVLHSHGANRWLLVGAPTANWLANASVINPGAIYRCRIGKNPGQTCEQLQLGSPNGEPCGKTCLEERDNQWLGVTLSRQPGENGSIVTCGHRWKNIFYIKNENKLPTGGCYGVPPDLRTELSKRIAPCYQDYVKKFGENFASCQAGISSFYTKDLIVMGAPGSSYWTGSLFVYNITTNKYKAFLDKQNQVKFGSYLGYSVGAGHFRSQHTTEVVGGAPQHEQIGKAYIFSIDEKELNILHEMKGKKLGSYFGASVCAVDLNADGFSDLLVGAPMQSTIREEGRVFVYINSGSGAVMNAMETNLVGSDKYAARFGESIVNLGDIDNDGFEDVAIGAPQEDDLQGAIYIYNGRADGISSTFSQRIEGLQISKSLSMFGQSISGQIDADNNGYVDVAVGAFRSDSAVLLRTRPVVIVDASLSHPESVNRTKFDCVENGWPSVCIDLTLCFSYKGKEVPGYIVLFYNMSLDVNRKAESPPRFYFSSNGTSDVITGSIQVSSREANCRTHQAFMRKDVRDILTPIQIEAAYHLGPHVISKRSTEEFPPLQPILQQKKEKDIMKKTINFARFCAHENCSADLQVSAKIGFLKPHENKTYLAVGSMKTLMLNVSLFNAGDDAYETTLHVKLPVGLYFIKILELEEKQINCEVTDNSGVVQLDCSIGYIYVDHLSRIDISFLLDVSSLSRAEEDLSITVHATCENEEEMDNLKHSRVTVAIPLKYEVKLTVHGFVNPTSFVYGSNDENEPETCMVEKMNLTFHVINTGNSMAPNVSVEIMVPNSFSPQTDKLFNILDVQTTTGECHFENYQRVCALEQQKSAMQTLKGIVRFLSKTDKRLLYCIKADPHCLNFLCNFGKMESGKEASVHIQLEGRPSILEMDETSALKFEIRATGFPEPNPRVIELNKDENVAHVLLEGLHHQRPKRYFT
T1 sequence (P26010 20-723 limits assumed): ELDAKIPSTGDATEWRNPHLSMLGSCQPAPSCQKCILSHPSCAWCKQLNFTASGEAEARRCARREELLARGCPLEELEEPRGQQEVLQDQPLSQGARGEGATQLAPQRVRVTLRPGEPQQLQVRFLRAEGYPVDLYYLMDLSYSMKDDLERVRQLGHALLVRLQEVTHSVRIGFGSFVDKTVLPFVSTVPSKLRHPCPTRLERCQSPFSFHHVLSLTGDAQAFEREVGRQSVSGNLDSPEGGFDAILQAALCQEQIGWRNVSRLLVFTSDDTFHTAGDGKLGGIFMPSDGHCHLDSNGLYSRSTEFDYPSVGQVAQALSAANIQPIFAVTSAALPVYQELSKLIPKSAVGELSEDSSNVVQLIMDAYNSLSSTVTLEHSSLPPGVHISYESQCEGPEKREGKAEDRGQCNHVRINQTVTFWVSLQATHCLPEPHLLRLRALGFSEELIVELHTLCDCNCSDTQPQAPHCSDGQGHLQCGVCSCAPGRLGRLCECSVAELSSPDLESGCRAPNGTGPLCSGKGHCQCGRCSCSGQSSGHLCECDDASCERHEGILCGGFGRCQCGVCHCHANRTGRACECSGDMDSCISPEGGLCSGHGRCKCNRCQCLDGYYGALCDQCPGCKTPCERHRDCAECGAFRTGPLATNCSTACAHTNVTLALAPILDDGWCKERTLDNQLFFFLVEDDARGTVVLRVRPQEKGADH
Description: α4β7-MadCAM Competition ELISA (Example 4). The class given is binding. To be noted: Table 3 Representative compounds; inhibition of MAdCAM binding to coated α4β7; read-out: IC50. The protocol: After washing with wash buffer, 200 μL assay buffer was added to each well and incubated for one hour at 28° C. After another wash with wash buffer, 100 μL of a MAdCAM and peptide mixture in assay buffer was added to each well and incubated for one hour at 28° C., followed by washing with wash buffer.
(In general: ELISA stands for enzyme-linked immunosorbent assay.)
`CSCC[C@@H]1NC(=O)/C=N/OCCCCCCOc2cc3cc(c2)CSC[C@H](NC1=O)C(=O)N[C@@H](Cc1ccc(O)cc1)C(=O)N1CCC[C@H]1C(=O)N[C@@H](CC(=O)O)C(=O)N[C@@H]([C@@H](C)O)C(=O)N[C@@H](Cc1ccc(O)cc1)C(=O)N[C@@H](Cc1cnc[nH]1)C(=O)N[C@H](C(N)=O)CSC3` [compound 101, TSL6- SMCYPDTYHC] (MCYPDTYHC-NH2; linker N-2-9 via X3): the IC50 came to 167 µM.
On to `CSCC[C@@H]1NC(=O)[C@H](CCC(N)=O)NC(=O)[C@@H]2CSCc3cc(cc(c3)OCCCCCCO/N=C/C(=O)N[C@@H](Cc3ccccc3)C(=O)N2)CSC[C@@H](C(N)=O)NC(=O)[C@H](C)NC(=O)[C@H](CCCCN)NC(=O)[C@H](CCC(=O)O)NC(=O)[C@H](Cc2ccccc2)NC1=O` [compound 102, TSL6- SFCQMFEKAC] (FCQMFEKAC-NH2; linker N-2-9 via X3), for which the IC50 came out at 178 µM.
Same read-out and setting: then `CCCC[C@@H]1NC(=O)[C@H](CO)NC(=O)[C@@H]2CSSC[C@@H](C(=O)N[C@@H](Cc3c[nH]c4ccccc34)C(=O)N[C@@H](CCC(N)=O)C(N)=O)NC(=O)[C@H](CC(C)C)NC(=O)[C@@H](CC(=O)O)NC(=O)[C@H](CCCC)NC(=O)[C@H](CO)NC(=O)[C@H](CCCNC(=N)N)NC(=O)[C@H](CSCC(=O)N[C@@H](CCCNC(=N)N)C(=O)N2)NC(=O)[C@H](CC(C)C)NC(=O)[C@H](CC(=O)O)NC1=O` [compound 103, Disulfide- RCS{Nle}DICRS NleDICWQ] ({CH2CO}-RCS[Nle]DLCRS[Nle][dD]LCWQ-NH2; disulfide 2-13; thioether N-7), with 263 µM.
As to `CC(C)C[C@@H]1NC(=O)[C@H](Cc2ccccc2)NC(=O)[C@@H]2CSCc3cc(cc(c3)OCCCCCCO/N=C/C(=O)N[C@@H]([C@@H](C)O)C(=O)N2)CSC[C@@H](C(N)=O)NC(=O)[C@H](CC(N)=O)NC(=O)[C@H](CCCCN)NC(=O)[C@H](C(C)C)NC(=O)[C@H](CC(=O)O)NC1=O` [compound 104, TSL6- STCFLDVKNC] (TCFLDVKNC-NH2; linker N-2-9 via X3), the IC50 is 311 µM.
On the same count and under the same terms, then `CC(C)C[C@@H]1NC(=O)[C@@H]2CCCN2C(=O)[C@H](Cc2c[nH]c3ccccc23)NC(=O)[C@@H]2CCCN2C(=O)[C@@H]2CSCc3cc(cc(c3)OCCCCCCO/N=C/C(=O)N[C@@H](CCC(=O)O)C(=O)N2)CSC[C@@H](C(N)=O)NC(=O)[C@H](CCC(N)=O)NC(=O)[C@@H]2CCCN2C1=O` [compound 105, TSL6- SECPWPLPQC] (ECPWPLPQC-NH2; linker N-2-9 via X3), with 341 µM; and `CSCC[C@@H]1NC(=O)[C@H](CCCNC(=N)N)NC(=O)[C@@H]2CSCc3cc(cc(c3)OCCCCCCO/N=C/C(=O)N[C@@H]([C@H](C)O)C(=O)N2)CSC[C@@H](C(N)=O)NC(=O)[C@H](CC(=O)O)NC(=O)[C@H](CCC(N)=O)NC(=O)[C@H](Cc2ccccc2)NC(=O)[C@H](CC(=O)O)NC1=O` [compound 106, TSL6- STCRMDFQDC] ([aThr]CRMDFQDC-NH2; linker N-2-9 via X3), with 499 µM.
For `CCC(C)C[C@@H]1NC(=O)[C@H](CC(=O)O)NC(=O)[C@H](CC(C)C)NC(=O)[C@H](CCCCN)NC(=O)[C@@H]2CSCc3cc(cc(c3)OCCCCCCO/N=C/C(=O)N[C@@H](Cc3c[nH]cn3)C(=O)N2)CSC[C@@H](C(N)=O)NC(=O)[C@H](CC(C)C)NC(=O)[C@H](Cc2c[nH]c3ccccc23)NC1=O` (stereo partly shown) [compound 107, TSL6- SHCKLDIWVC] (HCKLD[hIle(4ξ)]WLC-NH2; linker N-2-9 via X3), the IC50 is > 500 µM.
The same measure, in the same setting: then `CC(C)C[C@@H]1NC(=O)[C@@H]2CCCN2C(=O)[C@@H]2CSCc3cc(cc(c3)OCCCCCCO/N=C/C(=O)N[C@@H](CCCCN)C(=O)N2)CSC[C@@H](C(N)=O)NC(=O)[C@H](CCC(=O)O)NC(=O)[C@H](Cc2ccc(O)cc2)NC(=O)[C@@H]2CCCN2C(=O)[C@H]([C@@H](C)O)NC(=O)[C@H](C)NC1=O` [compound 108, TSL6- SKCPLATPYEC] (KCPLATPYEC-NH2; linker N-2-10 via X3), with > 500 µM.
On the same count and under the same terms, then `C[C@@H]1NC(=O)[C@@H]2CCCN2C(=O)[C@@H]2CSCc3cc(cc(c3)OCCCCCCO/N=C/C(=O)N[C@@H](CCCCN)C(=O)N2)CSC[C@@H](C(N)=O)NC(=O)[C@H](CCC(=O)O)NC(=O)[C@H](Cc2ccc(O)cc2)NC(=O)[C@@H]2CCCN2C(=O)[C@H]([C@@H](C)O)NC(=O)[C@H](CC(=O)O)NC1=O` [compound 109, TSL- 6SKCPADTPYEC] (KCPADTPYEC-NH2; linker N-2-10 via X3), with > 500 µM.
On the same count and under the same terms, as for `CC[C@H](C)[C@@H]1NC(=O)[C@H](C)NC(=O)[C@H](CCSC)NC(=O)[C@@H]2CCCN2C(=O)[C@@H]2CSCc3cc(cc(c3)OCCCCCCO/N=C/C(=O)N[C@@H](CCC(N)=O)C(=O)N2)CSC[C@@H](C(N)=O)NC(=O)[C@H]([C@@H](C)O)NC(=O)[C@@H]2CCCN2C1=O` [compound 110, TSL6- SQCPMAIPTC] (QCPMAIPTC-NH2; linker N-2-9 via X3), the figure is > 500 µM; as for `N=C(N)NCCC[C@H]1CNC(=O)CNC(=O)[C@H](Cc2ccc(O)cc2)NC(=O)[C@H](Cc2c[nH]c3ccccc23)NC(=O)[C@H](Cc2c[nH]cn2)NC(=O)[C@@H]2CSCc3cc(cc(c3)OCCCCCCO/N=C/C(=O)N[C@@H](CCC(N)=O)C(=O)N2)CSC[C@@H](C(N)=O)NC(=O)[C@@H](CO)NC1=O` [compound 111, TSL6- SQCHWYGRSC] (QCHWYG[X4][dS]C-NH2; linker N-2-9 via X3), > 500 µM.

System in a further data set: not listed separately
Description: Simulated Intestinal Fluid Assay. To be noted: FaSSIF, LCMS/MS. Here is the method:
Studies were carried out in simulated intestinal fluid (SIF) to evaluate the intestinal stability of the peptide molecules of the peptides of the instant disclosure. A Fasted State Simulated Intestinal Fluid (FaSSIF) reagent was prepared according to methods known in the art (including addition of the enzyme pancreatin), to which stock peptide solutions were added, incubated, quenched, and analyzed using LCMS/MS.
Percent remaining at each time point was calculated based on the peak area response ratio of test to compound to internal standard. Half-lives were calculated by fitting to a first-order exponential decay equation using GraphPad.
With `C[C@@H](O)[C@H](NC(=O)[C@H](CC(=O)O)NC(=O)[C@@H]1CCCN1C(=O)[C@H](Cc1ccc(O)cc1)NC(=O)[C@H](CS)NC(=O)[C@H](CC(=O)O)NC(=O)[C@@H](N)CO)C(=O)N[C@@H](Cc1ccc(O)cc1)C(=O)N[C@@H](Cc1c[nH]cn1)C(=O)N[C@@H](CS)C(=O)O` [SEQ ID NO. 13] (H-SDCYPDTYHC-OH), the Comments entry was “No peak”.

The same data set, now with this note: simulated gi fluid.
`O=C(O)CCCc1ccc(N(CCCl)CCCl)cc1` [Chlorambucil, chlorambucil, reference compound]: the half-life was 37.6 min.
On the same count and under the same terms, then `CSCC[C@H](NC(=O)[C@@H](N)CO)C(=O)N[C@H]1CSSC[C@@H](C(=O)O)NC(=O)[C@H](Cc2c[nH]cn2)NC(=O)[C@H](C(C)C)NC(=O)[C@H](CCCCN)NC(=O)[C@H](Cc2ccc(O)cc2)NC(=O)[C@H](CC(C)C)NC(=O)[C@@H]2CCCN2C1=O` [SEQ ID NO. 5] (H-SMCPLYKVHC-OH; disulfide 3-10), with 23.6 min; and `CSCC[C@@H]1NC(=O)C=NOCCCCCCOc2cc3cc(c2)CSC[C@H](NC1=O)C(=O)N1CCC[C@H]1C(=O)N[C@@H](CC(C)C)C(=O)N[C@@H](Cc1ccc(O)cc1)C(=O)N[C@@H](CCCCN)C(=O)N[C@@H](C(C)C)C(=O)N[C@@H](Cc1c[nH]cn1)C(=O)N[C@H](C(=O)O)CSC3` [SEQ ID NO. 8] (MCPLYKVHC-OH; linker N-2-9 via X1), with 8.23 min; and `C[C@@H](O)[C@@H]1NC(=O)[C@H](CC(=O)O)NC(=O)[C@@H]2CCCN2C(=O)[C@H](Cc2ccc(O)cc2)NC(=O)[C@@H](NC(=O)[C@H](CC(=O)O)NC(=O)[C@@H](N)CO)CSSC[C@@H](C(N)=O)NC(=O)[C@H](Cc2c[nH]cn2)NC(=O)[C@H](Cc2ccc(O)cc2)NC1=O` [SEQ ID NO. 14] (H-SDCYPDTYHC-NH2; disulfide 3-10), with 79.4 min.

In general, IC50 refers to the concentration that gives 50% inhibition. The term half-life denotes how long it takes for the measured level to halve.
